Assay results reported in US12116343B2, “Inhibitors of APOL1 and methods of using same” (Vertex Pharmaceuticals Incorporated, priority 2020, dated 2024).

Molecular target: T1, G1 APOL1 (Homo sapiens, UniProt O14791, I384M/S342G)
T1 construct: expressed in transfected cells
T1 sequence (O14791 28-398 S342G/I384M): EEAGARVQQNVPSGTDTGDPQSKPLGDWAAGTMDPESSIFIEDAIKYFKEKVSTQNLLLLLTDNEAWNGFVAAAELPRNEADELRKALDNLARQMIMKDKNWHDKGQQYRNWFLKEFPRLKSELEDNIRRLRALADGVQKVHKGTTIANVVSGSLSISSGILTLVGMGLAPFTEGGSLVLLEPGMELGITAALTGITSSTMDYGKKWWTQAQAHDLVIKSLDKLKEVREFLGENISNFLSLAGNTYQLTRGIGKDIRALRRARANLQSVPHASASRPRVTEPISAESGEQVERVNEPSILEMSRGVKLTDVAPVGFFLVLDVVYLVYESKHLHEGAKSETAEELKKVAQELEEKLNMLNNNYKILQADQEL
Assay: Acute APOL1 Thallium Assay with inducible stable clones of HEK 293 cells
Assay type: cell-based
Settings: Table 24, Compounds 287 to 465; read-out: Thallium Assay (IC50)
Outline: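 Readout: Tl+-triggered fluorescence, FLIPR, reflecting potassium flux through APOL1 pores after cells take up an AM-ester thallium indicator. Cells: HEK T-Rex stable clone G1 DC3.25, APOL1 G1 induced by tetracycline, seeded 26000 per well.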

Row | IC50 [nM] | Compound
1 | > 1000 | CC(C)[C@@H](CO)NC(=O)O[C@H]1C[C@H](c2c(-c3ccc(F)cc3)[nH]c3c(F)cc(F)cc32)C1 [Compound 377]
2 | > 1000 | O=C(NCc1ccco1)O[C@H]1C[C@H](c2c(-c3ccc(F)cc3)[nH]c3c(F)cc(F)cc32)C1 [Compound 379]
3 | > 1000 | CC(C)C(CO)NC(=O)O[C@H]1C[C@H](c2c(-c3ccc(F)cc3)[nH]c3c(F)cc(F)cc32)C1 (stereo partly drawn) [Compound 380]
4 | > 1000 | O=C(N[C@H]1CCOC1)O[C@H]1C[C@H](c2c(-c3ccc(F)cc3)[nH]c3c(F)cc(F)cc32)C1 [Compound 381]
5 | > 1000 | O=C(NC1CCOC1)O[C@H]1C[C@H](c2c(-c3ccc(F)cc3)[nH]c3c(F)cc(F)cc32)C1 (stereo partly drawn) [Compound 382]
6 | > 1000 | O=C(NC1CC(O)C1)O[C@H]1C[C@H](c2c(-c3ccc(F)cc3)[nH]c3c(F)cc(F)cc32)C1 (stereo partly drawn) [Compound 383]
7 | > 1000 | O=C(NCC1CCOC1)O[C@H]1C[C@H](c2c(-c3ccc(F)cc3)[nH]c3c(F)cc(F)cc32)C1 (stereo partly drawn) [Compound 384]
8 | > 1000 | Cc1cc(CNC(=O)O[C@H]2C[C@H](c3c(-c4ccc(F)cc4)[nH]c4c(F)cc(F)cc43)C2)on1 [Compound 385]
9 | > 1000 | O=C(NCc1cn(CC(F)(F)F)cn1)O[C@H]1C[C@H](c2c(-c3ccc(F)cc3)[nH]c3c(F)cc(F)cc32)C1 [Compound 386]
10 | > 1000 | Cn1cc(CNC(=O)O[C@H]2C[C@H](c3c(-c4ccc(F)cc4)[nH]c4c(F)cc(F)cc43)C2)nn1 [Compound 387]
11 | > 1000 | CCC(O)CNC(=O)O[C@H]1C[C@H](c2c(-c3ccc(F)cc3)[nH]c3c(F)cc(F)cc32)C1 (stereo partly drawn) [Compound 388]
12 | > 1000 | O=C(N[C@H]1COC[C@@H]1O)O[C@H]1C[C@H](c2c(-c3ccc(F)cc3)[nH]c3c(F)cc(F)cc32)C1 [Compound 389]
13 | > 1000 | CO[C@H]1C[C@@H](NC(=O)O[C@H]2C[C@H](c3c(-c4ccc(F)cc4)[nH]c4c(F)cc(F)cc43)C2)C1 [Compound 390]
14 | 250 to 1000 | CNC(=O)NC[C@H]1C[C@H](c2c(-c3ccc(F)cc3)[nH]c3c(F)cc(F)cc32)C1 [Compound 391, 1-(((1r,3r)-3-(5,7-difluoro-2-(4-fluorophenyl)-1H-indol-3-yl)cyclobutyl)methyl)-3-methylurea]
15 | > 1000 | O=C(NCCO)NC[C@H]1C[C@H](c2c(-c3ccc(F)cc3)[nH]c3c(F)cc(F)cc32)C1 [Compound 393]
16 | > 1000 | O=C(NC[C@H]1C[C@H](c2c(-c3ccc(F)cc3)[nH]c3c(F)cc(F)cc32)C1)N[C@H]1CC[C@H]1O [Compound 394]
17 | > 1000 | CC1CC(NC(=O)NC[C@H]2C[C@H](c3c(-c4ccc(F)cc4)[nH]c4c(F)cc(F)cc43)C2)C(=O)O1 (stereo partly drawn) [Compound 395]
18 | > 1000 | O=C(NCC1(CO)COC1)NC[C@H]1C[C@H](c2c(-c3ccc(F)cc3)[nH]c3c(F)cc(F)cc32)C1 [Compound 396]
19 | > 1000 | CC(CO)(CO)NC(=O)NC[C@H]1C[C@H](c2c(-c3ccc(F)cc3)[nH]c3c(F)cc(F)cc32)C1 [Compound 397]
20 | > 1000 | O=C(NCC1(O)COC1)NC[C@H]1C[C@H](c2c(-c3ccc(F)cc3)[nH]c3c(F)cc(F)cc32)C1 [Compound 398]

Row | IC50 [nM] | Compound
21 | > 1000 | O=C(NCC1(O)CC1)NC[C@H]1C[C@H](c2c(-c3ccc(F)cc3)[nH]c3c(F)cc(F)cc32)C1 [Compound 399]
22 | > 1000 | O=C(NC[C@H]1C[C@H](c2c(-c3ccc(F)cc3)[nH]c3c(F)cc(F)cc32)C1)NC1(CO)CC(F)(F)C1 [Compound 400]
23 | > 1000 | CC1(O)CC(NC(=O)NC[C@H]2C[C@H](c3c(-c4ccc(F)cc4)[nH]c4c(F)cc(F)cc43)C2)C1 (stereo partly drawn) [Compound 401]
24 | > 1000 | O=C(NC[C@H]1C[C@H](c2c(-c3ccc(F)cc3)[nH]c3c(F)cc(F)cc32)C1)N[C@H]1CC[C@@H]1O [Compound 402]
25 | > 1000 | CC1(C)CC(NC(=O)NC[C@H]2C[C@H](c3c(-c4ccc(F)cc4)[nH]c4c(F)cc(F)cc43)C2)C(=O)O1 (stereo partly drawn) [Compound 403]
26 | > 1000 | C[C@H](CO)N(C)C(=O)NC[C@H]1C[C@H](c2c(-c3ccc(F)cc3)[nH]c3c(F)cc(F)cc32)C1 [Compound 404]
27 | > 1000 | O=C(NC[C@H]1C[C@H](c2c(-c3ccc(F)cc3)[nH]c3c(F)cc(F)cc32)C1)N1CCC[C@@H]1CO [Compound 405]
28 | > 1000 | O=C(NC[C@H](O)C(F)(F)F)NC[C@H]1C[C@H](c2c(-c3ccc(F)cc3)[nH]c3c(F)cc(F)cc32)C1 [Compound 406]
29 | > 1000 | C[C@@H](O)CNC(=O)NC[C@H]1C[C@H](c2c(-c3ccc(F)cc3)[nH]c3c(F)cc(F)cc32)C1 [Compound 407]
30 | > 1000 | C[C@]1(NC(=O)NC[C@H]2C[C@H](c3c(-c4ccc(F)cc4)[nH]c4c(F)cc(F)cc43)C2)C[C@@H](O)C1 [Compound 408]
31 | > 1000 | C[C@H](CO)NC(=O)NC[C@H]1C[C@H](c2c(-c3ccc(F)cc3)[nH]c3c(F)cc(F)cc32)C1 [Compound 409]
32 | > 1000 | CCNC(=O)NC[C@H]1C[C@H](c2c(-c3ccc(F)cc3)[nH]c3c(F)cc(F)cc32)C1 [Compound 410]
33 | > 1000 | O=C(NC[C@H]1C[C@H](c2c(-c3ccc(F)cc3)[nH]c3c(F)cc(F)cc32)C1)N[C@H]1C[C@H](O)C1 [Compound 411]
34 | > 1000 | O=C(NC[C@H]1C[C@H](c2c(-c3ccc(F)cc3)[nH]c3c(F)cc(F)cc32)C1)N[C@@H](CO)C(F)(F)F [Compound 413]
35 | > 1000 | C[C@@H](CO)NC(=O)NC[C@H]1C[C@H](c2c(-c3ccc(F)cc3)[nH]c3c(F)cc(F)cc32)C1 [Compound 414]
36 | > 1000 | CN(C(=O)NC[C@H]1C[C@H](c2c(-c3ccc(F)cc3)[nH]c3c(F)cc(F)cc32)C1)C1COCC1O (stereo partly drawn) [Compound 415]
37 | > 1000 | CC(C)(C)[C@H](CO)NC(=O)NC[C@H]1C[C@H](c2c(-c3ccc(F)cc3)[nH]c3c(F)cc(F)cc32)C1 [Compound 416]
38 | > 1000 | O=C(NCC1CCNC1=O)NC[C@H]1C[C@H](c2c(-c3ccc(F)cc3)[nH]c3c(F)cc(F)cc32)C1 (stereo partly drawn) [Compound 417]
39 | > 1000 | CC[C@H](CO)NC(=O)NC[C@H]1C[C@H](c2c(-c3ccc(F)cc3)[nH]c3c(F)cc(F)cc32)C1 [Compound 418]
40 | > 1000 | O=C(NC[C@H]1C[C@H](c2c(-c3ccc(F)cc3)[nH]c3c(F)cc(F)cc32)C1)N[C@H]1CC[C@H](O)C1 [Compound 419]

Row | IC50 [nM] | Compound
41 | > 1000 | O=C(NC[C@H]1C[C@H](c2c(-c3ccc(F)cc3)[nH]c3c(F)cc(F)cc32)C1)NC1CC(O)C1 (stereo partly drawn) [Compound 420]
42 | > 1000 | CC[C@@H](CO)NC(=O)NC[C@H]1C[C@H](c2c(-c3ccc(F)cc3)[nH]c3c(F)cc(F)cc32)C1 [Compound 421]
43 | > 1000 | O=C(NC[C@H]1CC[C@@H](CO)O1)NC[C@H]1C[C@H](c2c(-c3ccc(F)cc3)[nH]c3c(F)cc(F)cc32)C1 [Compound 422]
44 | > 1000 | CC(C)(O)CNC(=O)NC[C@H]1C[C@H](c2c(-c3ccc(F)cc3)[nH]c3c(F)cc(F)cc32)C1 [Compound 423]
45 | > 1000 | O=C(NC[C@@H](O)C(F)(F)F)NC[C@H]1C[C@H](c2c(-c3ccc(F)cc3)[nH]c3c(F)cc(F)cc32)C1 [Compound 424]
46 | > 1000 | O=C(NC[C@H]1C[C@H](c2c(-c3ccc(F)cc3)[nH]c3c(F)cc(F)cc32)C1)NC1(CO)CCOC1 (stereo partly drawn) [Compound 425]
47 | > 1000 | CN(CC1CC(c2c(-c3ccc(F)cc3)[nH]c3c(F)cc(F)cc23)C1)C(=O)NCc1cn(C)cn1 (stereo not drawn) [Compound 427, 1-((3-(5,7-difluoro-2-(4-fluorophenyl)-1H-indol-3-yl)cyclobutyl)methyl)-1-methyl-3-((1-methyl-1H-imidazol-4-yl)methyl)urea]
48 | > 1000 | CNC(=O)N(C)CC1CC(c2c(-c3ccc(F)cc3)[nH]c3c(F)cc(F)cc23)C1 (stereo not drawn) [Compound 428]
49 | > 1000 | C[C@@H](O)CNC(=O)N(C)CC1CC(c2c(-c3ccc(F)cc3)[nH]c3c(F)cc(F)cc23)C1 (stereo partly drawn) [Compound 429]
50 | > 1000 | C[C@H](O)CNC(=O)N(C)CC1CC(c2c(-c3ccc(F)cc3)[nH]c3c(F)cc(F)cc23)C1 (stereo partly drawn) [Compound 430]
51 | > 1000 | CN(CC1CC(c2c(-c3ccc(F)cc3)[nH]c3c(F)cc(F)cc23)C1)C(=O)NCCO (stereo not drawn) [Compound 431]
52 | > 1000 | CN(CC1CC(c2c(-c3ccc(F)cc3)[nH]c3c(F)cc(F)cc23)C1)C(=O)N1CCC1 (stereo not drawn) [Compound 432]
53 | 250 to 1000 | C[C@H](NCC1CC(c2c(-c3ccc(F)cc3)[nH]c3c(F)cc(F)cc23)C1)C(=O)N(C)C (stereo partly drawn) [Compound 434]
54 | 250 to 1000 | CN(C)C(=O)CNCC1CC(c2c(-c3ccc(F)cc3)[nH]c3c(F)cc(F)cc23)C1 (stereo not drawn) [Compound 435]
55 | 250 to 1000 | NC(=O)C(CO)NCC1CC(c2c(-c3ccc(F)cc3)[nH]c3c(F)cc(F)cc23)C1 (stereo not drawn) [Compound 437]
56 | > 1000 | C[C@@H](NCC1CC(c2c(-c3ccc(F)cc3)[nH]c3c(F)cc(F)cc23)C1)C(=O)N(C)C (stereo partly drawn) [Compound 438]
57 | > 1000 | C[C@H](NCC1CC(c2c(-c3ccc(F)cc3)[nH]c3c(F)cc(F)cc23)C1)C(N)=O (stereo partly drawn) [Compound 439]
58 | > 1000 | CC(C)(NCC1CC(c2c(-c3ccc(F)cc3)[nH]c3c(F)cc(F)cc23)C1)C(N)=O (stereo not drawn) [Compound 440]
59 | > 1000 | CC(C)CC(NCC1CC(c2c(-c3ccc(F)cc3)[nH]c3c(F)cc(F)cc23)C1)C(N)=O (stereo not drawn) [Compound 441]
60 | > 1000 | CC(C)(NCC1CC(c2c(-c3ccc(F)cc3)[nH]c3c(F)cc(F)cc23)C1)C(=O)NCC(F)(F)F (stereo not drawn) [Compound 442]
